Measured values reported in patent publication US20020123525A1, “Cardioprotective composition and uses thereof” (GESTILAB INC., priority 1999, published 2002).

How the values were obtained:
isolated rat heart [1] = test: Cardioprotection and reperfusion-induced arrhythmias in regional ischemia-reperfusion of isolated rat heart; conditions: Heart (ex vivo)
Experimental: (§1) All experiments were conformed to rules of the Guide for the care and use of laboratory animals published by the U.S. National Institutes of Health (NIH publication No 85-23, revised 1985). Adult male Wistar rats (225-250 g) were anaesthetized with sodium pentobarbitone (0.1 ml/100 g body weight) and then heparinised (500 Ul intra-peritoneally). Hearts were rapidly excised, placed in ice-cold oxygenated KH buffer solution, cleaned and then mounted on a modified Langendorff heart perfusion apparatus.
Hearts were cannulated via the aorta and retrogradely perfused at a constant perfusion pressure (90 mm Hg at 37° C.) with modified KH buffer. […]
(§2) A saline-filled latex balloon was inserted into the left ventricle by way of the AV valve and connected via a polyethylene cannula to a pressure transducer for determination of Left Ventricular Pressure (LVP) and Left Ventricular End Diastolic Pressure (LVEDP). […] The LVP, LVEDP, and ECG were recorded on a Nihon-Kohden polygraph (RM 600); heart rate (HR) was calculated from the electrogram. Coronary flow (CF) was measured by time collection of coronary effluent at various times during the experiment.
Hearts were perfused for a 20 min control period with KH buffer, for stabilization. […] Left ventricular pressure and epicardial ECG were continuously monitored before and during ischemia and reperfusion. […]

isolated rat heart [2] = test: Cardioprotection in electrolysis-induced ROS on isolated rat heart; conditions: Heart (ex vivo)
Experimental: as §1
Hearts were cannulated via the aorta and retrogradely perfused at a constant perfusion pressure (90 mm Hg at 37° C.) with modified KH buffer. This solution was continuously gassed with a mixture of 95% O2 and 5% CO2 to maintain a pH of 7.4 at 37° C. […]
as §2, with “experiment. […]” for “experiment.”
The cardiodynamic variables were monitored during all the experimental period.

[3] = In vitro antioxidant capacity, inhibition of DPD oxidation by electrolyzed KH buffer
Source text: Oxidation rate of N,N-diethyl-p-phenylenediamine (DPD) by a prooxidant system was used as a general reporter of the amount of ROS generated by that system (Anonymous, 1985; Chahine et al., 1991). Antioxidant capacity of preparations of TRIAD (or of its components) was defined as the extent (%) to which they inhibited the oxidation of DPD by prooxidants. To estimate the antioxidant capacity of TRIAD preparations in the conditions encountered during perfusion of hearts with electrolyzed buffer, 0.6 ml of modified KH not containing (control situation corresponding to 0% inhibition) or containing various concentrations of TRIAD, TRIAD (S2) or their components was subjected to 1-min electrolysis at 10 mA and then mixed with 0.3 ml of the non-electrolyzed counterpart of the solution to which 95 mM DPD was added. Determination of the amount of oxidized DPD was immediately done by reading absorbencies a 515 nm.

## CC(=O)C(=O)[O-].[Na+] [Pyruvate, sodium pyruvate]
Isolated rat heart [1]
  Effect of fatty acids and vitamin E on action of pyruvate, the component that mostly contributed to antioxidant action: (Pyruvate, ↓)
Isolated rat heart [2]
  Effect of fatty acids and vitamin E on action of pyruvate, the component that mostly contributed to antioxidant action: (Pyruvate, ↑)
[3]; DPD (in vitro), electrolysis
  Effect of fatty acids and vitamin E on action of pyruvate, the component that mostly contributed to antioxidant action: (Pyruvate, ↑)
[3]; electrolysis pro-oxidant system, DPD method, same concentrations
  Antioxidant capacity (ROS scavenging) in vitro, comparison: only a slightly lower ROS scavenging capacity
